Tests used:
Format in all cases: cell-based
[1] = target: Cyclin E1 (Homo sapiens, UniProt P24864+Q96SW2); assay: Cyclin E1 Cellular Degradation Assay (MSD); design: endogenous in cells; host or cells: OVCAR3; details: for DC50 / Dmax: Cyclin E1 cellular degradation; for Dmax: maximum degradation; for Ratio of GSPT1 DC50/Cyclin E1 DC50: selectivity for degradation of Cyclin E1 over GSPT1
How it was run: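 OVCAR3 cells treated with compound for 24 h at 37 °C, lysed, and cyclin E1 measured by MSD sandwich immunoassay (rabbit capture, mouse detection anti-CCNE1). Reference degrader at […] defined 110% response; DC50 and Dmax derived from response.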

[2] = target: GSPT1 (Homo sapiens, UniProt P15170+Q96SW2); assay: GSPT1 Cellular Degradation Assay (DF15-GSPT1-ePL); design: expressed in transfected cells; details: DF15-GSPT1-ePL cells, 20 hours
How it was run: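 Human DF15 cells co-expressing a GSPT1–ePL fusion were treated with compound in RPMI 1640/10% FBS for 20 h at 37 °C. GSPT1 level was read by enzyme-fragment-complementation luminescence after 60 min with detection reagent. The reference degrader at […] defined 75% response; DC50 and Dmax were reported.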

[3] = system: Phospho-Rb (Ser807/811); assay: Phospho-Retinoblastoma (pRB) Cellular Assay; details: Homo sapiens, OVCAR-3, NIH OVCAR3 cells, 24 hours; for IC50: concentration giving 50% response; for Emax: maximum response, reference compound at 10 μM = 100%, read-out: pRB Ymax
How it was run: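 OVCAR3 cells seeded overnight, then dosed with serial dilutions for 24 h at 37° C. Lysed with kit mix plus phosphatase inhibitor, ≥4 h at room temperature, read on EnVision; 100% response set by reference compound at 10 μM, giving IC50 and Ymax.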

Sequence of GSPT1 (P15170 whole entry, the tested form may be a part): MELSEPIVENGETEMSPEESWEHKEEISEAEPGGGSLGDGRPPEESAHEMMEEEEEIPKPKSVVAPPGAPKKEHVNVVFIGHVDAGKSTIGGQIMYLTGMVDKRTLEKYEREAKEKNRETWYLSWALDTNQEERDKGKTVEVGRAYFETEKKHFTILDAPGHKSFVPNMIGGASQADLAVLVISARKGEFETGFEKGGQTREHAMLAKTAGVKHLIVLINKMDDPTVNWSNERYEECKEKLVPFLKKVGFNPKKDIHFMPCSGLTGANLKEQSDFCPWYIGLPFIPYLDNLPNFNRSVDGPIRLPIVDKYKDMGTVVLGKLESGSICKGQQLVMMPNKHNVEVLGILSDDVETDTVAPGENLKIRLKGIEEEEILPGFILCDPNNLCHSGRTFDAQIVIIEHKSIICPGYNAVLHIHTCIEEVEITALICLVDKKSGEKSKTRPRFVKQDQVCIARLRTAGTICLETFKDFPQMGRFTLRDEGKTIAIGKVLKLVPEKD
Sequence of GSPT1 (Q96SW2 whole entry, the tested form may be a part): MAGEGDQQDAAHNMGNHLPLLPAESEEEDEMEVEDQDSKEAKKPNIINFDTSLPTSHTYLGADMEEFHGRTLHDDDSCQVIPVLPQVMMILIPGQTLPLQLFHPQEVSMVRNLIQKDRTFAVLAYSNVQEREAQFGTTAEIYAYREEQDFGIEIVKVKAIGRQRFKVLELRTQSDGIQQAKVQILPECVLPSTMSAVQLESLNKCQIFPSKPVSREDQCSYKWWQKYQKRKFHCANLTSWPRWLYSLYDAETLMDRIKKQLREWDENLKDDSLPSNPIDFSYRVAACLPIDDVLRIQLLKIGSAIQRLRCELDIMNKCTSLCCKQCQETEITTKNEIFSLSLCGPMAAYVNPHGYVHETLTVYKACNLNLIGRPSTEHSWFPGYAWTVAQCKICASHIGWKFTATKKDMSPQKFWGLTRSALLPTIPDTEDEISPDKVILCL
Sequence of GSPT1 (Q16531 whole entry partner, the tested form may be a part): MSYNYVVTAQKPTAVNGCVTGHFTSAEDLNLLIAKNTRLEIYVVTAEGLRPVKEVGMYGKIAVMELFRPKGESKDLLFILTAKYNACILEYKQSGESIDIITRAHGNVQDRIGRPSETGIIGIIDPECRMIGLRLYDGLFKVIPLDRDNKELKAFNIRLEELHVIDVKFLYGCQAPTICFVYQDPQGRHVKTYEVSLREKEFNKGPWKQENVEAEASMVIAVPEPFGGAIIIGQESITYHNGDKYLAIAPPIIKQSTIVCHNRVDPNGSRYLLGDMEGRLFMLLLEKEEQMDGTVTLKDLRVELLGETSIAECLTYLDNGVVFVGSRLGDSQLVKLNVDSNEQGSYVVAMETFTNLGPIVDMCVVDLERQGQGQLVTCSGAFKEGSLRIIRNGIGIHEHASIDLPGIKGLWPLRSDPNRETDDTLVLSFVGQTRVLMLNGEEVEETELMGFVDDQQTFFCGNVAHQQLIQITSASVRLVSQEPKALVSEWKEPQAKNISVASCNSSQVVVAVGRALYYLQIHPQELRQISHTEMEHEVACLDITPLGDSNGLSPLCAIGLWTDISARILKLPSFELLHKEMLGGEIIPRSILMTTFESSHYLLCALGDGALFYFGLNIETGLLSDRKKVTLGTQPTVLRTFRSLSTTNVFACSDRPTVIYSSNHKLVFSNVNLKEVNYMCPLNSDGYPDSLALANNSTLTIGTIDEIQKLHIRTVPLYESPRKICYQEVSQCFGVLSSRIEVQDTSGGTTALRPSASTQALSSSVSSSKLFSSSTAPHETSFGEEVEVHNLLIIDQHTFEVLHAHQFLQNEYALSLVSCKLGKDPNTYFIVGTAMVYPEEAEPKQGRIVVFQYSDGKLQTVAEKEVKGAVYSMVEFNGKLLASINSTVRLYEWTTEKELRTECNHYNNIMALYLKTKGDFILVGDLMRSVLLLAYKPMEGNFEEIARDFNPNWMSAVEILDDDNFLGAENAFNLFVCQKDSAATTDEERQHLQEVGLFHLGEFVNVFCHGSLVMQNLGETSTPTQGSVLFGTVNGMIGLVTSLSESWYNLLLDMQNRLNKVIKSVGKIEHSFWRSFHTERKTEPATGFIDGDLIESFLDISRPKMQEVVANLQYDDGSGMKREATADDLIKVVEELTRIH
Sequence of Cyclin E1 (P24864 whole entry): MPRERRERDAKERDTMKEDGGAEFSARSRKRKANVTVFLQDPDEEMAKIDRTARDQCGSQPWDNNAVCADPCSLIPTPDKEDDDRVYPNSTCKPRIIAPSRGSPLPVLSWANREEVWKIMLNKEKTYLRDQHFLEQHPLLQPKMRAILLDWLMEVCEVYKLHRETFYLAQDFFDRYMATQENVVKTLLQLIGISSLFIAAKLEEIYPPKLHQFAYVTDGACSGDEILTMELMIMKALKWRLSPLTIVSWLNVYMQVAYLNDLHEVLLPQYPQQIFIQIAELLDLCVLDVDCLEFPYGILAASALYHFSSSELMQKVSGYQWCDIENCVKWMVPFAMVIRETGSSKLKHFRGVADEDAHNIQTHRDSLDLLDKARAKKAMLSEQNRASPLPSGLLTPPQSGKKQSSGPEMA
Sequence of Cyclin E1 (Q96SW2 whole entry): as the sequence (Q96SW2 whole entry, the tested form may be a part) above
Sequence of Cyclin E1 (Q16531 whole entry partner): as the sequence (Q16531 whole entry partner, the tested form may be a part) above

| DC50 [1] [nM] | Dmax [1] [%] | Ratio of GSPT1 DC50/Cyclin E1 DC50 [1] | DC50 [2] [nM] | Dmax [2] [%] | IC50 [3] [nM] | SMILES | Emax [3] [%] |
| --- | --- | --- | --- | --- | --- | --- | --- |
| 92 | 110 | >152 | > 14000 | 37 | 64 | COc1c(COC(=O)Nc2ccc(Oc3ccc(F)cc3C)cc2)ccc2c1C(=O)N(C1CCC(=O)NC1=O)C2 (centres unmarked) [Example 81, [2-(2,6-dioxopiperidin-3-yl)-4-methoxy-3-oxo-2,3-dihydro-1H-isoindol-5-yl]methyl N-[4-(4-fluoro-2-methylphenoxy)phenyl]carbamate] | 103 |
| 159 | 106 | >88 | > 14000 | 19 | 113 | CC(C)Oc1c(COC(=O)Nc2ccc(Oc3ccc(F)c(F)c3)cc2)ccc2c1C(=O)N(C1CCC(=O)NC1=O)C2 (centres unmarked) [Example 56, [2-(2,6-dioxopiperidin-3-yl)-3-oxo-4-(propan-2-yloxy)-2,3-dihydro-1H-isoindol-5-yl]methyl N-[4-(3,4-difluorophenoxy)phenyl]carbamate] | 127 |
| 61 | 106 | >230 | > 14000 | 16 | 54 | CC(C)Oc1c(COC(=O)Nc2ccc(Oc3ccccc3Cl)cc2)ccc2c1C(=O)N(C1CCC(=O)NC1=O)C2 (centres unmarked) [Example 122, [2-(2,6-dioxopiperidin-3-yl)-3-oxo-4-(propan-2-yloxy)-2,3-dihydro-1H-isoindol-5-yl]methyl N-[4-(2-chlorophenoxy)phenyl]carbamate] | 122 |
| 82 | 100 | >171 | > 14000 | 11 | 483 | COc1c(COC(=O)Nc2ccc(Oc3cc(C)cc(C)c3)cc2)ccc2c1C(=O)N(C1CCC(=O)NC1=O)C2 (centres unmarked) [Example 12, [2-(2,6-dioxopiperidin-3-yl)-4-methoxy-3-oxo-2,3-dihydro-1H-isoindol-5-yl]methyl N-[4-(3,5-dimethylphenoxy)phenyl]carbamate] | 111 |
| 96 | 106 | >146 | > 14000 | 20 | 132 | COc1c(COC(=O)Nc2ccc(Oc3ccc(F)cc3F)cc2C)ccc2c1C(=O)N(C1CCC(=O)NC1=O)C2 (centres unmarked) [Example 42, [2-(2,6-dioxopiperidin-3-yl)-4-methoxy-3-oxo-2,3-dihydro-1H-isoindol-5-yl]methyl N-[4-(2,4-difluorophenoxy)-2-methylphenyl]carbamate] | 110 |
| 131 | 107 | >107 | > 14000 | 4 | 110 | CC(C)Oc1c(COC(=O)Nc2ccc(Oc3cccc(F)c3)cc2)ccc2c1C(=O)N(C1CCC(=O)NC1=O)C2 (centres unmarked) [Example 123, [2-(2,6-dioxopiperidin-3-yl)-3-oxo-4-(propan-2-yloxy)-2,3-dihydro-1H-isoindol-5-yl]methyl N-[4-(3-fluorophenoxy)phenyl]carbamate] | 121 |
| 112 | 99 | >125 | > 14000 | 10 | 144 | O=C1CCC(N2Cc3ccc(COC(=O)Nc4ccc(Oc5ccc(F)cc5F)cc4)c(Oc4ccccc4)c3C2=O)C(=O)N1 (centres unmarked) [Example 67, [2-(2,6-dioxopiperidin-3-yl)-3-oxo-4-phenoxy-2,3-dihydro-1H-isoindol-5-yl]methyl N-[4-(2,4-difluorophenoxy)phenyl]carbamate] | 127 |
| 289 | 101 | >48 | > 14000 | 42 | 159 | COc1c(COC(=O)Nc2ccc(Oc3ccc(F)cc3C(F)F)cc2)ccc2c1C(=O)N(C1CCC(=O)NC1=O)C2 (centres unmarked) [Example 89, [2-(2,6-dioxopiperidin-3-yl)-4-methoxy-3-oxo-2,3-dihydro-1H-isoindol-5-yl]methyl N-{4-[2-(difluoromethyl)-4-fluorophenoxy]phenyl}carbamate] | 108 |

The next lines start with the molecule.

| SMILES | DC50 [1] [nM] | Dmax [1] [%] | Ratio of GSPT1 DC50/Cyclin E1 DC50 [1] | DC50 [2] [nM] | Dmax [2] [%] | IC50 [3] [nM] | Emax [3] [%] |
| --- | --- | --- | --- | --- | --- | --- | --- |
| O=C1CCC(N2Cc3ccc(COC(=O)Nc4ccc(Oc5ccccc5)cc4)c(Oc4ccccc4)c3C2=O)C(=O)N1 (centres unmarked) [Example 62, [2-(2,6-dioxopiperidin-3-yl)-3-oxo-4-phenoxy-2,3-dihydro-1H-isoindol-5-yl]methyl N-(4-phenoxyphenyl)carbamate] | 98 | 102 | >143 | > 14000 | 33 | 676 | 94 |
| COc1c(COC(=O)Nc2ccc(Oc3cc(Cl)cc(Cl)c3)cc2F)ccc2c1C(=O)N(C1CCC(=O)NC1=O)C2 (centres unmarked) [Example 118, [2-(2,6-dioxopiperidin-3-yl)-4-methoxy-3-oxo-2,3-dihydro-1H-isoindol-5-yl]methyl N-[4-(3,5-dichlorophenoxy)-2-fluorophenyl]carbamate] | 417 | 96 | >34 | > 14000 | 24 | 299 | 105 |
| O=C1CCC(N2Cc3ccc(COC(=O)Nc4ccc(Oc5ccc(F)c(F)c5)cc4)c(OC4CCC4)c3C2=O)C(=O)N1 (centres unmarked) [Example 126, [4-cyclobutoxy-2-(2,6-dioxopiperidin-3-yl)-3-oxo-2,3-dihydro-1H-isoindol-5-yl]methyl N-[4-(3,4-difluorophenoxy)phenyl]carbamate] | 140 | 107 | >100 | > 14000 | 9 | 117 | 129 |
| CC(C)(O)COc1c(COC(=O)Nc2ccc(Oc3ccc(F)cc3F)cc2F)ccc2c1C(=O)N(C1CCC(=O)NC1=O)C2 (centres unmarked) [Example 163, [2-(2,6-dioxopiperidin-3-yl)-4-(2-hydroxy-2-methylpropoxy)-3-oxo-2,3-dihydro-1H-isoindol-5-yl]methyl N-[4-(2,4-difluorophenoxy)-2-fluorophenyl]carbamate] | 15 | 110 | >921 | > 14000 | 7 | 112 | 137 |
| COc1c(COC(=O)Nc2ccc(Oc3cccc(Cl)c3)cc2F)ccc2c1C(=O)N(C1CCC(=O)NC1=O)C2 (centres unmarked) [Example 26, [2-(2,6-dioxopiperidin-3-yl)-4-methoxy-3-oxo-2,3-dihydro-1H-isoindol-5-yl]methyl N-[4-(3-chlorophenoxy)-2-fluorophenyl]carbamate] | 97 | 106 | >145 | > 14000 | 32 | 428 | 96 |
| O=C1CCC(N2Cc3ccc(COC(=O)Nc4ccc(Oc5cccc(F)c5)cc4)c(O[C@@H]4CCCOC4)c3C2=O)C(=O)N1 (stereo partly drawn) [Example 143, [2-(2,6-dioxopiperidin-3-yl)-4-[(3R)-oxan-3-yloxy]-3-oxo-2,3-dihydro-1H-isoindol-5-yl]methyl N-[4-(3-fluorophenoxy)phenyl]carbamate] | 31 | 110 | >445 | > 14000 | 8 | 66 | 153 |
| CCOc1c(COC(=O)Nc2ccc(Oc3ccccc3)cc2)ccc2c1C(=O)N(C1CCC(=O)NC1=O)C2 (centres unmarked) [Example 52, [2-(2,6-dioxopiperidin-3-yl)-4-ethoxy-3-oxo-2,3-dihydro-1H-isoindol-5-yl]methyl N-(4-phenoxyphenyl)carbamate] | 134 | 107 | >105 | > 14000 | 13 | 81 | 111 |
| O=C1CCC(N2Cc3ccc(COC(=O)Nc4ccc(Oc5ccccc5Cl)cc4)c(OC4CCOCC4)c3C2=O)C(=O)N1 (centres unmarked) [Example 131, [2-(2,6-dioxopiperidin-3-yl)-4-(oxan-4-yloxy)-3-oxo-2,3-dihydro-1H-isoindol-5-yl]methyl N-[4-(2-chlorophenoxy)phenyl]carbamate] | 31 | 102 | >450 | > 14000 | 0 | 28 | 129 |
| O=C1CCC(N2Cc3ccc(COC(=O)Nc4ccc(Oc5ccc(F)c(F)c5)cc4F)c(OC4CCOCC4)c3C2=O)C(=O)N1 (centres unmarked) [Example 132, [2-(2,6-dioxopiperidin-3-yl)-4-(oxan-4-yloxy)-3-oxo-2,3-dihydro-1H-isoindol-5-yl]methyl N-[4-(3,4-difluorophenoxy)-2-fluorophenyl]carbamate] | 20 | 107 | >693 | > 14000 | 10 | 66 | 142 |
